Experimental findings from a melting point compilation (Tetko et al.; mined from patent text by program, amines drawn as free bases though some values may be those of a salt) are described below.

As for `COC(=O)C(NS(=O)(=O)c1ccc(-c2ccc(NC(=O)c3cc4ccccc4o3)cc2)cc1)C(C)C` (stereo not drawn), the melting point (commonly the temperature, or range, at which the solid turns liquid) lay in the range of 195 to 200 °C. Take `N#Cc1cc(C(=O)c2ccccc2)ccc1[N+](=O)[O-]`: the melting point fell in the range of 117 to 119 °C. `CC1C(=O)Nc2cccc3c2N1C(=O)C3c1ccccc1` (stereo not drawn) showed a melting point of 208 to 211 °C. In turn, `CC(=O)Nc1ccc2oc(-c3ccc(OCc4ccccc4)c(OCc4ccccc4)c3)c(O)c(=O)c2c1` returned a melting point of 229 to 230 °C. As for `CS(=O)c1ccc(-c2nc(=O)c3ccccc3s2)cn1` (stereo not drawn), the melting point is 195 to 196 °C. In turn, `COc1cc(OC)c(C23CC4CC(CC(C4)C2)C3)cc1C(=O)O` had a melting point of 213 to 214 °C.

Consider `NC(=O)c1cc(NCc2c(F)c(F)c(C(F)(F)F)c(F)c2F)ccc1O`, for which the melting point lay within 143 to 145 °C. Molecule `CC(C)Nc1cccnc1N1CCN(C(=O)c2ccc(C(=O)N3CCN(CCO)CC3)cc2)CC1` registered a melting point of 148 to 149 °C.

With `O=c1ccn(CCO)c(C(O)c2ccccc2)c1O` (stereo not drawn), the melting point lay in the range of 198 to 200 °C.

On to `COCCc1nc2c(N)nc3ccccc3c2n1CCCCCC(=O)N1CCOCC1`, for which the melting point lay within 131 to 132 °C. `CC(C)(C)c1cc(C2=NC(=S)N=N2)cc(C(C)(C)C)c1O` yielded a melting point of more than 250 °C. The value for `CCOc1ccc(Cc2cc([C@@H]3O[C@H](SC)[C@@H](O)[C@H](O)[C@H]3O)ccc2Cl)cc1` was 123 °C; that for `Nc1n[nH]c2cccc(I)c12` was 153 °C; that for `N#Cc1cnn2c1N(C(=O)CN1CCN(C(=O)Nc3cccc(Cl)c3)CC1)CC=C2c1cccc(C(F)(F)F)c1` was 182 to 185 °C. The molecule `C=C(C)C(=O)OCCOc1ccc(/C=C/C(=O)OC)cc1` yielded a melting point of 81 to 82 °C.

As for `Cc1nn2c(C(F)(F)F)cc(-c3ccc(Cl)cc3)nc2c1C#N`, the melting point came to 238 °C. In the case of `CCSc1nc2c(C(=O)OC)sc(-c3ccccc3)c2[nH]1`, the melting point is 214 to 215 °C.

On to `CN1CCC(=C2c3ccc(F)cc3Sc3ccc(F)cc32)CC1`, for which the melting point is 120 to 123 °C. In turn, `COC(=O)C(C)N(C(=O)CCl)c1c(C)cccc1C` (stereo not drawn) displayed a melting point of 92 to 94 °C. `CC1(C)CCC(C)(C)c2cc(C3NC(=O)NC3=O)ccc21` (stereo not drawn) registered a melting point of 213 to 214 °C. The result for `CCCCC1SCC(C(=O)OC(C)(C)C)N1C(=O)CNC(=O)NCC(C(=O)O)c1ccccc1` (stereo not drawn) reads 102 °C; that for `NC(=O)c1c(Cl)c(-c2ccccc2)n2c1CN(C(=O)Nc1cccc(C(=O)O)c1)CC2`, 263 to 265 °C; that for `O=C(O)c1cc(Cl)nn1-c1ncccc1Cl`, 198 to 199 °C. The molecule `CC(C)(C)OC(=O)N(C(=O)OC(C)(C)C)c1cc(-c2ccc(N)cc2)n(C(=O)OC(C)(C)C)n1` displayed a melting point of 84 to 85 °C.

The molecule `O=C(CCN1CCC(C(O)(c2ccc(F)cc2)c2ccc(F)cc2)CC1)Nc1ccccc1` registered a melting point of 190 to 192 °C. In the case of `COCOc1ccc(-n2c(=O)c3c(CN(C)Cc4ccccc4)c(-c4ccc(NC(=O)NOC)cc4)sc3n(Cc3c(F)cccc3F)c2=O)cc1`, the melting point lay within 189 to 191 °C. For the molecule `CC(C)OCc1nc(C(C)(C)O)c(C(=O)OC(C)C)[nH]1`, the melting point is 154 to 155 °C. Take `CCC(=O)N(C)c1cccc(-c2ccnc3c(C(=O)c4ccco4)cnn23)c1`: the melting point was in the range of 153 to 155 °C.

Molecule `COc1cc(CSCCNC(=O)c2c(Cl)cccc2Cl)cc(OC)c1` yielded a melting point of 46 to 47 °C. `CC(COc1ccc(CC2SC(=O)NC2=O)cc1)NCC(O)COc1ccccc1` (stereo not drawn): the melting point fell in the range of 64 to 68 °C. On to `Oc1ccc2c(c1)CCCC(c1ccccc1)=C2c1ccc(OCCCCCCl)cc1`, for which the melting point fell in the range of 200 to 202 °C. Consider `CC(C)Oc1cc(N2C(=O)C3CCCCN3C2=O)c(F)cc1Cl` (stereo not drawn), for which the melting point lay within 60.5 to 64.5 °C. Take `CCCCOC(=O)NCCc1nc(-c2ccc(-c3ccccc3)cc2)c[nH]1`: the melting point came to 137 °C. In turn, `O=C(CCl)N1Cc2ccccc2P1(=O)c1ccccc1` (stereo not drawn) registered a melting point of 167 to 169 °C.

Turning to `N#Cc1ccc(CN(c2ccc(O)cc2)n2ccnc2)cc1`, the melting point was found to be 150 °C. In turn, `Cn1c(=O)c(NC(=O)Nc2ccc(F)cc2F)c(-c2ccccc2)c2cc(Cl)ccc21` gave a melting point of 204 to 206 °C.

Molecule `Cn1cc(C2=C(c3cn(CCCNCCN)c4ccccc34)C(=O)NC2=O)c2ccccc21` had a melting point of 190 to 193 °C.

The molecule `CC(C)(C)OC(=O)N1CC(c2n[nH]c(-c3ccccn3)n2)C1` had a melting point of 220 °C. The molecule `CSc1ccc(C=C2C(=O)c3ccccc3CC2OCCn2ccnc2)cc1` (stereo not drawn) showed a melting point of 161 to 162 °C. In turn, `CN(C(=O)c1cn2ccc(-c3ccc(Cl)cc3)cc2n1)C(Cc1ccc(OCc2ccccc2)cc1)C(=O)O` (stereo not drawn) displayed a melting point of 222 °C. As for `COc1cc2c(cc1Br)CC(C)OC2c1ccc([N+](=O)[O-])cc1` (stereo not drawn), the melting point was in the range of 128 to 129 °C. In the case of `O=C(O)CCc1c(Br)cccc1C(F)(F)F`, the melting point fell in the range of 122 to 126 °C. Turning to `CC(C)(CF)c1cc(Cl)nnc1Cl`, the melting point lay in the range of 36 to 38 °C. On to `CSc1cncc(O)c1`, for which the melting point worked out at 179 °C.

As for `CCCCN1C(N)=NC(Oc2cccc(C)c2)=NS1(=O)=O`, the melting point is 169 to 171 °C. For the molecule `O=C1c2ccccc2C(=O)N1OCc1c(Cl)cccc1Cl`, the melting point lay in the range of 201 to 206 °C. The result for `CCN1C(=O)N(SC(Cl)(Cl)Cl)C(=O)C1(C)C` reads 141 to 142 °C. On to `NS(=O)(=O)c1ccc(-n2nc(C(F)(F)F)c3c2-c2ccccc2CC3)cc1`, for which the melting point lay in the range of 257 to 258 °C. Take `CC(=O)Nc1cc(OC(F)F)c(OC(F)F)cc1[N+](=O)[O-]`: the melting point lay within 65 to 67 °C.

`CC(C)(C)OC(=O)NCC1=CC(c2ccccc2)Cc2c1ccc(O)c2O` (stereo not drawn) returned a melting point of 175 to 177 °C. The value for `O=C(Nc1ccccc1)C(CBr)CBr` was 143 to 144 °C; that for `Oc1ccc2c(c1)c1c(n2CCCCCN2CCCCC2)-c2ccccc2SCC1` was 182 °C.

Regarding `O=C(O)Cc1ccc(C(=O)c2ccccc2)s1`, the melting point came to 144 °C. For `O=C1COC(c2cccc(Cl)c2)c2cc(C3(c4ccc(Cl)cc4)OCCO3)ccc2N1` (stereo not drawn), the melting point is 205 °C. `Cn1nnnc1Cc1ccc(N)cc1` displayed a melting point of 104 to 105 °C.

Molecule `CC(=O)NC[C@H]1CN(c2ccc(N3CCC(F)(CC#N)CC3)c(F)c2)C(=O)O1` yielded a melting point of 210 to 212 °C.

The molecule `C=CCNc1cc(Oc2ccccc2)c(Cl)cc1[N+](=O)[O-]` registered a melting point of 81 to 82 °C. In turn, `CCc1cnc2c(c1)S(=O)(=O)NC2=O` had a melting point of 199 to 201 °C. `C=CSc1nc(-c2ccc(OC)cc2)c(-c2ccc(OC)cc2)[nH]1` displayed a melting point of 114 to 115 °C. `C(=C\c1nc2ccccc2n1-c1ccccn1)/c1ccsc1`: the melting point is 136 °C. Molecule `COc1ccc(COCc2nc(C(C)C)c(I)[nH]2)cc1` showed a melting point of 78 to 79 °C.

`CCCc1c(C(=O)C2CCCC2)c2ccc(C(N)=O)cc2n1Cc1cc2c(cc1Cl)OCO2` registered a melting point of 236 to 237 °C. `CC(O)Cn1c(CO)nc(C(C)C)c1Sc1cc(Cl)cc(Cl)c1` (stereo not drawn) showed a melting point of 159 to 161 °C.
